{"source": "patent US6403561B1", "about": "“Tripeptidylpeptidase inhibitors” (Institut National de la Sante et de la Recherche Medicale …, priority 1998, dated 2002)", "key": {"[1]": {"biological_target": "membrane-bound tripeptidylpeptidase II (Rattus norvegicus, UniProt Q64560)", "sequence (Q64560 whole entry)": "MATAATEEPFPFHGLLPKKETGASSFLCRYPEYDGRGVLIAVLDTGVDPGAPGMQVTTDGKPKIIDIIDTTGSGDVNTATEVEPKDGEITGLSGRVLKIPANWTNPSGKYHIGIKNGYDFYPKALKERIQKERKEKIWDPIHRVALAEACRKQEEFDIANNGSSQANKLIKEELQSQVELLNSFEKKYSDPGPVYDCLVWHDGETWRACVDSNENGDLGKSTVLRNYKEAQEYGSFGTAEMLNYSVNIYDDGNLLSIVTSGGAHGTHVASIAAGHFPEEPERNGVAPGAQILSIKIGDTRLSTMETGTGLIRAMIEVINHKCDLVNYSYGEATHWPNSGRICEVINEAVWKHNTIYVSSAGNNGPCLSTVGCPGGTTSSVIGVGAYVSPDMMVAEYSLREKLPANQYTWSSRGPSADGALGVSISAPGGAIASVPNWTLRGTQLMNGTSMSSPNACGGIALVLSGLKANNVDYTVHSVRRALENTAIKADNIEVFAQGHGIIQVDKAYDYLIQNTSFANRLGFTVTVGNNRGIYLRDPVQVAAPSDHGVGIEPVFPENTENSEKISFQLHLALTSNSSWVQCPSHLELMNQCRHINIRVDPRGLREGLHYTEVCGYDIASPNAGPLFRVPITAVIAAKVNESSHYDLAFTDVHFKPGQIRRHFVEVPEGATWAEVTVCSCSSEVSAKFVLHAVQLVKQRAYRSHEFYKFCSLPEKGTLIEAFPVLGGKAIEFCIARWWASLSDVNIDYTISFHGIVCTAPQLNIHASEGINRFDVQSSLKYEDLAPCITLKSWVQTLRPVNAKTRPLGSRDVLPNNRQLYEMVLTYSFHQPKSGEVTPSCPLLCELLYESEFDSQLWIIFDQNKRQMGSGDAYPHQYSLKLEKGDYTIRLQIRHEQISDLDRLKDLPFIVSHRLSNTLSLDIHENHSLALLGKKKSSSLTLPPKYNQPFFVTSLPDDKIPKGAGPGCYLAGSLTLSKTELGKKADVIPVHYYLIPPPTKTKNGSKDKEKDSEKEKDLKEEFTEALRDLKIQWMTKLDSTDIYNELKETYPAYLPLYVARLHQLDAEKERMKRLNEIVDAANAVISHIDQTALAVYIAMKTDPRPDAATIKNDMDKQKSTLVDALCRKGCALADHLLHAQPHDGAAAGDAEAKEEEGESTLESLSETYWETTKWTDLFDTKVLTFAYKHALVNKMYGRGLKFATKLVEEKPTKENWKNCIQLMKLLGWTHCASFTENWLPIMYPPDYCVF", "assay": "Measurement of the activity of membrane-bound tripeptidylpeptidase (release of Amc from A-AP-Amc, fluorimetry)", "conditions": "apparent dissociation constant calculated from the 50% inhibitory concentration and the KM of the substrate (23 μM), rat brain membranes, 50 μM A-AP-Amc", "method": "Membranes from rat brain were obtained by centrifugation (200,000×g min) of a homogenate prepared in 10 volumes of 50 mM potassium phosphate buffer, pH 7.4.\nAfter washing thoroughly, the centrifugation pellet is taken up in the buffer containing 10% glycerol and 0.1% Brij 35 in order to obtain a concentration of 25 mg of proteins/ml.\nThe release of Amc is evaluated by fluorimetry."}, "[2]": {"biological_target": "T1, liver TPP II (Mus musculus, UniProt Q64514)", "T1 construct": "measuring the residual catalytic activity on membranes from brain or from a peripheral organ; from tissue; host or cells: mouse liver (membranes), ex vivo after oral dosing", "T1 sequence (Q64514 whole entry)": "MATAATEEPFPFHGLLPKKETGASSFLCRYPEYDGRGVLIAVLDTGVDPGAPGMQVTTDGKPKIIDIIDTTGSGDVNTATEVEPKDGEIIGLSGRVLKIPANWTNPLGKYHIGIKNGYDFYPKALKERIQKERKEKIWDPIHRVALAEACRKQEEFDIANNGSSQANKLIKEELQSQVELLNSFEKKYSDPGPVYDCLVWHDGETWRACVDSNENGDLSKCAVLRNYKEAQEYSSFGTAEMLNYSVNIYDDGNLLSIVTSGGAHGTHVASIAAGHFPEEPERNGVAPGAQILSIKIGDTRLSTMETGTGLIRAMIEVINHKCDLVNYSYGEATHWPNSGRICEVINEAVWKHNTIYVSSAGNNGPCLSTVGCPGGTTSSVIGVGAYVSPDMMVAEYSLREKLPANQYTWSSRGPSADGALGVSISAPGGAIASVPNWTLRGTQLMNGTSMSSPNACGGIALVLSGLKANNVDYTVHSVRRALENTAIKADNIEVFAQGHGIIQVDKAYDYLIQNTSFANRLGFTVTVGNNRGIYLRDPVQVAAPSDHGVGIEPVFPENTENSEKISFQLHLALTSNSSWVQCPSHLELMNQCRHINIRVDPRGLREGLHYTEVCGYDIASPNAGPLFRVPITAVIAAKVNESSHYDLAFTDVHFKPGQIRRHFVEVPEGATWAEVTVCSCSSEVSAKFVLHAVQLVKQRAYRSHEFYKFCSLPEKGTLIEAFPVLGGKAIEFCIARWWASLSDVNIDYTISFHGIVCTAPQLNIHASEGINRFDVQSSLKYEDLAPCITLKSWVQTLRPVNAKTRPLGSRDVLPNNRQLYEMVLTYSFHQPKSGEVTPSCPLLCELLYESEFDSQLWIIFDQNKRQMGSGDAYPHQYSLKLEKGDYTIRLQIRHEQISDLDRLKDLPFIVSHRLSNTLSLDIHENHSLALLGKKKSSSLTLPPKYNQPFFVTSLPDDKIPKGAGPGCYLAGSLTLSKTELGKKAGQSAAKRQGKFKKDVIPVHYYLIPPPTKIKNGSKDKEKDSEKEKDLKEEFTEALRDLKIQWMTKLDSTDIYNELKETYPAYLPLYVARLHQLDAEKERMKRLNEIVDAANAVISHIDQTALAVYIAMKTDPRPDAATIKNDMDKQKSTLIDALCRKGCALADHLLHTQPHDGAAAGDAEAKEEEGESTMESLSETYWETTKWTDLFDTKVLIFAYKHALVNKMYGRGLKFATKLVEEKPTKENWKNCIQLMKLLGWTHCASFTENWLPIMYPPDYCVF", "assay": "Inhibitory activity of TPP II ex vivo after administration to a rodent", "assay_type": "in vivo", "conditions": "mice, 90 minutes after oral administration of 10 mg/kg", "description": "This test is completed by an evaluation of the inhibitory activity of TPP II “ex vivo”, which consists in administering a compound according to the invention to a rodent and in measuring the residual catalytic activity on membranes from brain or from a peripheral organ.\nFor example, the activity of liver TPP II measured in mice 90 minutes after oral administration of 10 mg/kg of the compound of Example 9 is about 90-100% inhibited."}, "[3]": {"assay": "Anorexigenic (pro-satiety) activity: spontaneous taking of solid food", "assay_type": "in vivo", "conditions": "mice, 10 mg/kg intravenously, 30 to 90 minutes after free access to food, after overnight fasting", "description": "In mice, at a dose of 10 mg/kg (intravenously), this compound decreases the spontaneous taking of solid food (“UAR” tablet) by 45%, measured over a period of 30 to 90 minutes after free access to this food (period preceded by fasting overnight and oral administration of 0.2 ml of a semi-liquid meal)."}, "[4]": {"test_system": "endogenous CCK-8", "assay": "Protection of endogenous CCK-8 released from slices of depolarized rat cerebral cortex (radioimmunoassay)", "assay_type": "cell-based", "conditions": "concentration of 1 μM", "description": "At a concentration of 1 μM, it multiplies the recovery of released CCK-8 4-fold (measured by radioimmunoassay)."}}, "note": "Where a SMILES comes first, the peptide text is derived from it. [ ]: non-standard residue; d: D form. The star is where a group is joined. Oic = O=C(O)[C@@H]1C[C@@H]2CCCC[C@@H]2N1; Abu = CC[C@H](N)C(=O)O; NHBu = CCCCN*"}
{"smiles": "CC(C)[C@H](NC(=O)[C@@H]1CCCN1C(=O)[C@H](C)N)B1OC2CC3CC(C3(C)C)C2(C)O1", "note": "(stereo partly drawn) [Example 9, L-alanyl-L-prolyl-L-borovaline pinanediol ester]", "values": [{"measurement": "Ki", "setting": "[1]", "result": 0.3, "unit": "nM"}, {"measurement": "inhibition of the activity of liver TPP II", "setting": "[2]", "result": "90-100%"}]}
{"smiles": "CCCCNC(=O)[C@@H]1C[C@@H]2CCCC[C@@H]2N1C(=O)[C@@H](N)CC", "note": "[Example 22, 1-(2(S)-aminobutyryl)-2(S)-[(3aS,7aS)-perhydro]indolinecarboxylic Acid N-butylamide] (H-[Abu]-[Oic]-NHBu)", "values": [{"measurement": "decrease of the spontaneous taking of solid food", "setting": "[3]", "result": 45, "unit": "%"}, {"measurement": "Ki", "setting": "[1]; Ki", "result": 560, "unit": "nM"}, {"measurement": "recovery of released CCK-8", "setting": "[4]", "result": 4, "unit": "fold"}]}
